# BindingDB's records for doi:10.1021/cb500893q (University of California Berkeley, 2015)
# Molecular target: T1, Platelet-activating factor acetylhydrolase IB subunit alpha2 (Mus musculus, UniProt Q61206)
# T1 sequence (Q61206 whole entry): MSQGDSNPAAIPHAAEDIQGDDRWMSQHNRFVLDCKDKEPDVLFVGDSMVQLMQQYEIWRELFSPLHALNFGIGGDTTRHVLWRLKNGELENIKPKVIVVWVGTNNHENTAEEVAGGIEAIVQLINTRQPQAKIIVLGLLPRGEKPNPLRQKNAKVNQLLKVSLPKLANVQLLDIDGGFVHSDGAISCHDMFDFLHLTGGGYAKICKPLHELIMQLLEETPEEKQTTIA
# Experiment: Competitive ABPP Assays in Proteomes with FP-alkyne
# Details: pH 7.5
# Method: Total protein concentrations for each fraction were adjusted to 1 mg/mL in PBS (50 μL total reaction volume). Samples were then subjected to click chemistry by the addition of 1 mM CuSO4 (1 μL of a 50x stock in DMSO), followed by TBTA (3 μL of a 17x stock in 4:1 t-butanol:DMSO), then 25 μM Rh-N3 (1 μL of a 50x stock in DMSO) and 1 mM TCEP (1 μL of a 50x stock in DMSO). Reactions were vortexed, incubated for 1 h at 25 °C, and quenched with 4x SDS-PAGE loading buffer and analyzed by in-gel fluorescence scanning.
row,IC50 [µM],SMILES
1,9.3,"Cc1ccc(C2CC=C(C(=O)NC3CC3)C(c3ccc(C(C)(C)C)cc3)N2S(=O)(=O)c2ccc(C)cc2)cc1 (stereo unspecified) [2-(4-(tert-butyl)phenyl)-N-cyclopropyl-6-(p-tolyl)-1-tosyl-1,2,5,6-tetrahydropyridine-3-carboxamide (JW1038)]"
2,> 10,"COC(=O)C1=CCC(c2ccc(C)cc2)N(S(=O)(=O)c2ccc(C)cc2)C1c1ccc(C(C)(C)C)cc1 (stereo unspecified) [Methyl-2-(4-(tert-butyl)phenyl)-6-(p-tolyl)-1-tosyl-1,2,5,6-tetrahydropyridine-3-carboxylate (JW1068)]"
3,7.5,"C=CCNC(=O)C1=CCC(c2ccc(C)cc2)N(S(=O)(=O)c2ccc(C)cc2)C1c1ccc(C(C)(C)C)cc1 (stereo unspecified) [N-allyl-2-(4-(tert-butyl)phenyl)-6-(p-tolyl)-1-tosyl-1,2,5,6-tetrahydropyridine-3-carboxamide (JW1043)]"
4,0.8,"Cc1ccc(C2CC=C(C(=O)O)C(c3ccc(C(C)(C)C)cc3)N2S(=O)(=O)c2ccc(C)cc2)cc1 (stereo unspecified) [2-(4-tert-butylphenyl)-1-(4-methylbenzenesulfonyl)-6-(4-methylphenyl)-1,2,5,6-tetrahydropyridine-3-carboxylic acid (P11)]"
5,8.2,"Cc1ccc(C2CC=C(C(=O)O)C(c3cccc(Cl)c3)N2S(=O)(=O)c2ccc(C)cc2)cc1 (stereo unspecified) [2-(3-chlorophenyl)-1-(4-methylbenzenesulfonyl)-6-(4-methylphenyl)-1,2,5,6-tetrahydropyridine-3-carboxylic acid (J13)]"
6,4.6,"Cc1ccc(C2CC=C(CBr)C(c3ccc(C(C)(C)C)cc3)N2S(=O)(=O)c2ccc(C)cc2)cc1 (stereo unspecified) [5-(bromomethyl)-6-(4-(tert-butyl)phenyl)-2-(p-tolyl)-1-tosyl-1,2,3,6-tetrahydropyridine (JW1058)]"
7,9.4,"CCc1ccc(C2CC=C(C(=O)O)C(c3cccc(Cl)c3)N2S(=O)(=O)c2ccc(C)cc2)cc1 (stereo unspecified) [2-(3-chlorophenyl)-6-(4-ethylphenyl)-1-(4-methylbenzenesulfonyl)-1,2,5,6-tetrahydropyridine-3-carboxylic acid (J8)]"
8,> 10,"CNC(=O)C1=CCC(c2ccc(C)cc2)N(S(=O)(=O)c2ccc(C)cc2)C1c1ccc(C(C)(C)C)cc1 (stereo unspecified) [2-(4-(tert-butyl)phenyl)-N-methyl-6-(p-tolyl)-1-tosyl-1,2,5,6-tetrahydropyridine-3-carboxamide (JW1036)]"
9,4.5,"Cc1ccc(C2C(C(=O)O)=CCC(c3ccc(C(C)C)cc3)N2S(=O)(=O)c2ccc(C)cc2)cc1 (stereo unspecified) [1-(4-methylbenzenesulfonyl)-2-(4-methylphenyl)-6-[4-(propan-2-yl)phenyl]-1,2,5,6-tetrahydropyridine-3-carboxylic acid (F5)]"
10,2,"Cc1ccc(C2CC=C(C(=O)O)C(c3ccc(F)cc3)N2S(=O)(=O)c2ccc(C)cc2)cc1 (stereo unspecified) [2-(4-fluorophenyl)-1-(4-methylbenzenesulfonyl)-6-(4-methylphenyl)-1,2,5,6-tetrahydropyridine-3-carboxylic acid (O8)]"
11,1.1,"Cc1ccc(S(=O)(=O)N2C(c3ccc(Cl)cc3)CC=C(C(=O)O)C2c2ccc(Br)cc2)cc1 (stereo unspecified) [2-(4-bromophenyl)-6-(4-chlorophenyl)-1-(4-methylbenzenesulfonyl)-1,2,5,6-tetrahydropyridine-3-carboxylic acid (H4)]"
12,1.7,"COCCNC(=O)C1=CCC(c2ccc(C)cc2)N(S(=O)(=O)c2ccc(C)cc2)C1c1ccc(C(C)(C)C)cc1 (stereo unspecified) [2-(4-(tert-butyl)phenyl)-N-(2-methoxyethyl)-6-(p-tolyl)-1-tosyl-1,2,5,6-tetrahydropyridine-3-carboxamide (JW1041)]"
13,1.1,"Cc1ccc(S(=O)(=O)N2C(c3ccc(C(C)C)cc3)CC=C(C(=O)O)C2c2ccc(F)cc2)cc1 (stereo unspecified) [2-(4-fluorophenyl)-1-(4-methylbenzenesulfonyl)-6-[4-(propan-2-yl)phenyl]-1,2,5,6-tetrahydropyridine-3-carboxylic acid (B6)]"
14,> 10,"Cc1ccc(C2CC=C(C(=O)NC3CCCCC3)C(c3ccc(C(C)(C)C)cc3)N2S(=O)(=O)c2ccc(C)cc2)cc1 (stereo unspecified) [2-(4-(tert-butyl)phenyl)-N-cyclohexyl-6-(p-tolyl)-1-tosyl-1,2,5,6-tetrahydropyridine-3-carboxamide (JW1039)]"
15,7.6,"Cc1ccc(C2CC=C(CNC3CC3)C(c3ccc(C(C)(C)C)cc3)N2S(=O)(=O)c2ccc(C)cc2)cc1 (stereo unspecified) [N-((2-(4-(tert-butyl)phenyl)-6-(p-tolyl)-1-tosyl-1,2,5,6-tetrahydropyridin-3-yl)methyl)cyclopropanamine (JW1061)]"
16,1.4,"Cc1ccc(S(=O)(=O)N2C(c3ccc(Cl)c(Cl)c3)CC=C(C(=O)O)C2c2ccc(Br)cc2)cc1 (stereo unspecified) [2-(4-bromophenyl)-6-(3,4-dichlorophenyl)-1-(4-methylbenzenesulfonyl)-1,2,5,6-tetrahydropyridine-3-carboxylic acid (K9)]"
